Reference: BindingDB's records for doi:10.7270/Q2TX3CTT (Broad Institute, 2010)
Structures can show the parent of a compound that is named as a salt.

Target: Glycogen synthase kinase-3 beta (Homo sapiens, UniProt P49841)
Experiment: concentration-response blocking of human GSK3B – biochemical, luminescence, cell-free homogeneous, retest, dose response (AID 434954)

Sequence of Glycogen synthase kinase-3 beta (P49841 whole entry): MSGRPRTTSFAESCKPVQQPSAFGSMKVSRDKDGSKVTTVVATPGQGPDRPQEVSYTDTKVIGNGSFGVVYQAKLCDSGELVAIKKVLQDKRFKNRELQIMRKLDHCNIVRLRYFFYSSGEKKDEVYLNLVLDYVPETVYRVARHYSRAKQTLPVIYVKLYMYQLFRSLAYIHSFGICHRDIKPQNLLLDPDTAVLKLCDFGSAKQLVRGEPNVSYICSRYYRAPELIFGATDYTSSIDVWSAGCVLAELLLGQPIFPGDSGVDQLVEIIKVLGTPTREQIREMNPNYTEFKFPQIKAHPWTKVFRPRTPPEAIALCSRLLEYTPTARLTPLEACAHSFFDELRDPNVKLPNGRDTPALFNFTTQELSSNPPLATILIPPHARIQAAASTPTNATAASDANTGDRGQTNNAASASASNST

SMILES	EC50
Cc1ccc2nc3c(cc2c1)c(NC(=O)c1ccco1)nn3CC(C)C [Furan-2-carboxylic acid (1-isobutyl-6-methyl-1H-pyrazolo[3,4-b]quinolin-3-yl)-amide]	> 300 µM
O=c1oc2cc(O)ccc2c2c1CCCC2 [3-hydroxy-7,8,9,10-tetrahydro-6H-benzo[c]chromen-6-one]	> 300 µM
Cc1cc(C)cc(NC(=O)NCC2CCN(Cc3cc(C)ccc3C)CC2)c1 [1-(3,5-dimethylphenyl)-3-[[1-[(2,5-dimethylphenyl)methyl]-4-piperidinyl]methyl]urea]	> 300 µM
Cc1ccccc1NC(=O)CSc1nc(N)c(C#N)c(-c2cccs2)c1C#N [2-(6-amino-3,5-dicyano-4-thiophen-2-ylpyridin-2-yl)sulfanyl-N-(2-methylphenyl)acetamide]	> 300 µM
Cn1nc(-c2ccccn2)nc2c(=O)n(C)c(=O)nc1-2 [1,6-dimethyl-3-(2-pyridinyl)pyrimido[5,4-e][1,2,4]triazine-5,7(1H,6H)-dione]	46.2 µM
COc1ccc2occ(C(=O)c3ccccc3)c2c1 [(5-methoxy-1-benzofuran-3-yl)-phenyl-methanone]	22.9 µM
c1cncc(CNc2nc(-c3cccnc3)nc3ccccc23)c1 [2-pyridin-3-yl-N-(pyridin-3-ylmethyl)quinazolin-4-amine]	> 300 µM
Nc1nonc1-n1nnc(C(=O)NN=Cc2cccc(O)c2)c1CN1CCCC1 [1-(4-azanyl-1,2,5-oxadiazol-3-yl)-N-[(3-hydroxyphenyl)methylideneamino]-5-(pyrrolidin-1-ylmethyl)-1,2,3-triazole-4-carboxamide]	12.8 µM
O=C(O)c1cc(C2CC2)nc2ccccc12 [2-cyclopropyl-4-quinolinecarboxylic acid]	> 300 µM
COc1cc(C2OCC3C(c4cc(OC)c(OC)c(OC)c4)OCC23)cc(OC)c1OC (stereo not given)	> 300 µM
CN(C)Cc1c(C(=O)NN=Cc2ccoc2)nnn1-c1nonc1N [1-(4-amino-1,2,5-oxadiazol-3-yl)-5-[(dimethylamino)methyl]-N-(3-furanylmethylideneamino)-4-triazolecarboxamide]	2.18 µM
COc1cc([CH+][N-]NC(=O)c2ccc(O)cc2)ccc1Oc1ccc([N+](=O)[O-])cn1 [4-hydroxy-N-[[3-methoxy-4-(5-nitropyridin-2-yl)oxyphenyl]methylideneamino]benzamide;propan-2-ol]	> 300 µM
Nc1ncnc2c1ccn2[C@@H]1O[C@H](CO)[C@@H](O)[C@H]1O ['2-(4-AMINO-PYRROLO[2,3-D]PYRIMIDIN-7-YL)-5-HYDROXYMETHYL-TETRAHYDRO-FURAN-3,4-DIOL]	> 300 µM
CC1(C)CC(=O)C=C(Nc2cccc(C(F)(F)F)c2)C1 [5,5-dimethyl-3-[[3-(trifluoromethyl)phenyl]amino]cyclohex-2-en-1-one]	> 300 µM
Cc1cc(Br)ccc1NC(=O)CN1C(=O)CCC1=O	> 300 µM
O=S(=O)(c1ccc(Br)cc1)N1CCN(c2cc(-c3ccccc3)nc3ncnn23)CC1 [7-[4-(4-bromophenyl)sulfonyl-1-piperazinyl]-5-phenyl-[1,2,4]triazolo[1,5-a]pyrimidine]	> 300 µM
Cc1ccc2cc(NC(=O)c3cccc(F)c3)ccc2n1 [3-fluoro-N-(2-methyl-6-quinolinyl)benzamide]	> 300 µM
CCCNCC1COc2ccccc2O1 (stereo not given) [2,3-dihydro-1,4-benzodioxin-3-ylmethyl(propyl)amine;hydrochloride]	> 300 µM
CCOC(=O)C1C(C)=Nc2ncnn2C1c1cccnc1 (stereo not given)	> 300 µM
Nc1nc(Cl)nc2c1ncn2C1OC(CO)C(O)C1O (stereo not given)	> 300 µM
CCOc1ccc2c(c1)C(NC(C)=O)C(=O)N2CCN1CCOCC1 (stereo not given) [N-[5-ethoxy-1-(2-morpholin-4-ylethyl)-2-oxo-3H-indol-3-yl]acetamide;hydrochloride]	> 300 µM
CCc1cc(=O)oc2cc(C)cc(O)c12 [4-ethyl-5-hydroxy-7-methyl-1-benzopyran-2-one]	> 300 µM
COc1ccc2c(c1)C(=O)Nc1cc(Cl)ccc1N2 [8-chloro-2-methoxy-5,10-dihydro-11H-dibenzo[b,e][1,4]diazepin-11-one]	> 300 µM
COC(=O)CSc1ccc2nnc(-c3ccc(OC)c(OC)c3)n2n1	> 300 µM

SMILES	EC50
O=c1c(-c2ccccc2)c(-c2ccccc2)oc2cc(O)cc(O)c12	24.6 µM
Cc1c(Cl)cccc1Nc1ccccc1C(=O)O	> 300 µM
Nc1ncnc2c1ncn2[C@@H]1O[C@H](CO)[C@@H](O)[C@H]1N	> 300 µM
CCOC(=O)c1sc(=S)n(-c2ccccc2OC)c1N	> 300 µM
Fc1ccc(-c2nnc(SCc3cccnc3)o2)cc1 [2-(4-fluorophenyl)-5-(pyridin-3-ylmethylsulfanyl)-1,3,4-oxadiazole]	75.5 µM
CC1Cc2cc(S(=O)(=O)N3CCN(c4ccccc4)CC3)ccc2N1C(=O)C1CC1 (stereo not given)	> 300 µM
CCC(=O)Nc1ccc(Nc2nc(C)c([N+](=O)[O-])c(Nc3ccc(NC(=O)CC)cc3)n2)cc1 [N,N'-[(6-methyl-5-nitro-2,4-pyrimidinediyl)bis(imino-4,1-phenylene)]dipropanamide]	> 300 µM
CCOc1ccc(C(=O)NCC(=O)OCc2c(C)noc2C)cc1 [(3,5-dimethyl-1,2-oxazol-4-yl)methyl 2-[(4-ethoxybenzoyl)amino]acetate]	> 300 µM
CCCCc1cc(=O)oc2cc(C)cc(OCC(=O)O)c12 [2-(4-butyl-7-methyl-2-oxochromen-5-yl)oxyacetic acid]	> 300 µM
c1ccc(Nc2nc(NCCN3CCOCC3)nc(Nc3ccccc3)n2)cc1	> 300 µM
CCCNC(=O)c1ccc(SCC(=O)N(CC)CC)c([N+](=O)[O-])c1	> 300 µM
COc1ccc(Nc2nc(N)c([N+](=O)[O-])c(NC3CCCCC3)n2)cc1	> 300 µM
Cc1cc(NC(=O)CSc2ccc3nnc(-c4cccs4)n3n2)no1	> 300 µM
O=C(Nc1ccnn1C1CCN(Cc2cccc(OCCO)c2)CC1)C1CCCC1 [N-[2-[1-[[3-(2-hydroxyethyloxy)phenyl]methyl]piperidin-4-yl]pyrazol-3-yl]cyclopentanecarboxamide]	> 300 µM
Cc1nn(CC(=O)N2CCN(c3ccccn3)CC2)c(=O)c2cc3sccc3n12 [1-methyl-3-[2-oxidanylidene-2-(4-pyridin-2-ylpiperazin-1-yl)ethyl]thieno[3,4]pyrrolo[3,5-c][1,2,4]triazin-4-one]	> 300 µM
CC(=O)c1cccc(S(=O)(=O)NC2CCSc3ccccc32)c1 (stereo not given)	> 300 µM
O=C(O)c1ccc(-c2ccc(CN=Nc3ccc([N+](=O)[O-])cc3)o2)cc1	> 300 µM
COc1cc([CH+][N-]NC(=O)c2ccncc2)ccc1Oc1ccc([N+](=O)[O-])cn1 [N-[[3-methoxy-4-[(5-nitro-2-pyridinyl)oxy]phenyl]methylideneamino]-4-pyridinecarboxamide]	> 300 µM
COc1ccc(OC)c(-c2cc(-c3cccnc3)nc(N)c2C#N)c1 [2-amino-4-(2,5-dimethoxyphenyl)-6-pyridin-3-ylpyridine-3-carbonitrile]	> 300 µM
O=C(O)c1ccc(CN=Nc2ccc(C(F)(F)F)cn2)cc1	20.4 µM
COc1ccc2c(c1)=C(NN1C(=O)c3ccccc3C1=O)C(=O)N=2 [2-[(5-methoxy-2-oxidanylidene-indol-3-yl)amino]isoindole-1,3-dione]	> 300 µM
Cc1sc2ncnc(N3CCCCC3C)c2c1C (stereo not given)	> 300 µM
c1ccc(-c2nc(NCc3cccnc3)c3ccccc3n2)cc1	> 300 µM

Now from value to molecule:

EC50	SMILES
> 300 µM	CC(CC(=O)NCc1ccccc1)=NNC(=O)c1cnccn1 [MLS000701004]
> 300 µM	COc1cccc(NC(=O)CN(C2=NC3CS(=O)(=O)CC3S2)c2cccc(C)c2)c1 (stereo not given) [MLS001110132]
> 300 µM	O=C(O)COc1ccc2oc3ccccc3c2c1 [SMR000243853]
> 300 µM	O=C(c1ccncc1)N1CCN(C(=O)c2ccco2)CC1 [MLS000066790]
> 300 µM	COc1ccc(C2C3=C(CC(C)(C)CC3=O)Nc3c2c(=O)nc2nc(C)[nH]n32)cc1 (stereo not given) [SMR000035838]
> 300 µM	CCNC(=S)Nc1ccc2cn[nH]c2c1 [SMR000261305]
71.9 µM	Nc1nc(NCc2ccccc2)nc(NCCO)c1[N+](=O)[O-] [MLS000332798]
> 300 µM	CSc1nc(-c2cccs2)c(C#N)c(=O)[nH]1 [MLS000849828]
> 300 µM	COc1cc([CH-]N=[O+]C)ccc1Oc1ccc([N+](=O)[O-])cc1[N+](=O)[O-] [MLS000699890]
4 µM	Nc1nonc1-n1nnc(C(=O)NN=Cc2cccc(Cl)c2)c1CN1CCCCCC1 [MLS000950585]
> 300 µM	COc1ccc(-c2cc(C(=O)N3CCN(C(=O)c4ccco4)CC3)[nH]n2)cc1 [SMR000623613]
> 300 µM	Cc1ccccc1NC(=O)CSc1nnc2ccc(-c3ccncc3)nn12 [SMR000808359]
> 300 µM	COc1ccc(N2CCN(c3cc(C)nc4ccc(OC)cc34)CC2)cc1 [MLS001174346]
46.3 µM	CSc1nc2ncc3c(n2n1)CC1c2ccccc2CCN1C3=O (stereo not given) [SMR000169664]
> 300 µM	O=C(Cc1ccccc1)Nc1ccc(N2CCOCC2)cc1 [MLS000707957]
> 300 µM	CN(C)c1nc(-c2cccnc2)nc(-c2ccccc2)c1C#N [SMR000549421]
> 300 µM	Cc1ccc(C(=O)/C=C/c2ccc3ncccc3c2)cc1 [SMR000516943]
> 300 µM	O=C(NCc1ccncc1)C1CCC(=O)N(CCc2ccc(Cl)cc2)C1 (stereo not given) [MLS001100847]
> 300 µM	CC(=O)Oc1ccc2occ(C(=O)c3cccs3)c2c1 [SMR000106284]
> 300 µM	O=C(/[O+]=N/[CH-]c1ccc(N2CCCCC2)c([N+](=O)[O-])c1)c1c(F)cccc1F [MLS000326582]
> 300 µM	CCSc1nc(N)c2c3c(sc2n1)CN(C)CC3 [MLS000082600]
> 300 µM	COCCn1c(SCC(=O)NC(=O)NCc2ccccc2)nc2ccccc21 [MLS000053169]
> 300 µM	O=C(Nc1cccnc1)Nc1ccccn1 [MLS000104821]
> 300 µM	COc1ccc(OC)c(NCc2nnc(-c3ccccc3)o2)c1 [MLS001208999]
> 300 µM	COc1cccc(NC(=O)NNS(=O)(=O)c2ccc(OC)cc2OC)c1 [SMR000679286]
> 300 µM	CN(Cc1c(C(=O)NN=Cc2ccccc2F)nnn1-c1nonc1N)c1ccccc1 [MLS001141029]
> 300 µM	CC(C)N1CCc2c(sc(NC(=O)CCc3ccccc3)c2C(N)=O)C1 [MLS000419104]
> 300 µM	COc1ccc(-c2c(C)oc3ccc(C)cc23)cc1 [MLS000562305]
